Drawing on patent publication US5192766A, “N-acryloylpiperazine derivatives, their preparation and their use as PAF antagonists” (Sankyo Company, Limited, priority 1989, dated 1993), this text covers ED50 and IC50 for 21 compounds.

The test system of one assay is PAF-induced hypotension. Nature of the assay: Inhibition of PAF-induced hypotension. The conditions noted are these: Rattus norvegicus, iv, 1 min; anesthetized rats; l-C16:0 PAF 10 ng/kg i.v.; test compound i.v. cumulatively, 1 min before PAF; read-out: Inhibitory effect ID50. Format: in vivo, Wistar-Imamichi rats. On the procedure:
Inhibition of PAF-induced hypotension
The test animals used were Wistar-Imamichi rats, each weighing from 350 to 450 g, anesthetized with Inactin (90 mg/kd, intraperitoneally).
Blood pressure was continuously measured throughout the experiment through a cannula inserted into the femoral artery. Each drug sample to be tested was intravenously injected through a cannula inserted into the femoral vein.
At first, l-C16:0 PAF was injected intravenously in amounts of 10 ng/kg at each injection at intervals of 5 minutes until the degree of the hypotensive response became constant. Then, each drug sample to be treated was intravenously injected. After one minute, the same dose of PAF was administered again. The drug sample was cumulatively administered. From its inhibition rate against the PAF-induced hypotensive effect, the 50% inhibitive dose (ID50) was determined, and is regarded as an index of PAF-antagonist activity. For administration, the PAF was dissolved in physiological saline solution containing 0.25% w/v of bovine serum albumin (BSA). The compounds under test were dissolved in dimethylformamide for use.
CV-3988 is disclosed in U.S. Pat. No. 4,408,052, and is structurally related to PAF itself.
In this Table, the compounds of the invention are identified by the number of the foregoing Example in which they were prepared.

Another assay has as its target T1, PAF-receptor (Oryctolagus cuniculus, UniProt G1TEI7).
T1 construct: is regarded as a PAF-receptor membrane fraction; from tissue; host or cells: rabbit blood platelets (membrane fraction from sucrose density layers)
The assay is described as follows: Inhibitor effect on PAF-receptor binding. The conditions noted are these: specific binding of ^3H-PAF; rabbit platelet PAF-receptor membrane fraction; read-out: Inhibition of receptor binding (IC50 M). An excerpt: Inhibitor effect on PAF-receptor binding
Blood samples were drawn from the heart of a rabbit. 1 part by volume of each sample was mixed immediately with 1/9 part of 0.77M solution of disodium ethylenediaminetetraacetate. After a similar procedure to that described in Experiment 2, a precipitated blood platelet sample was obtained. This blood platelet sample was washed, and, after repeated freezing and thawing for cellular breakdown, it was laid on top of double layers consisting of […] and 1.5M sucrose solutions. By centrifugation at 63,500×G, for 2 hours at 4° C., the fraction obtained from the interface between the 0.25M and 1.5M sucrose solutions was collected and is regarded as a PAF-receptor membrane fraction. A receptor binding experiment was conducted according to a method very similar to that reported by Hwang et al. [San-Bao Hwang et al.: J. Biol. Chem. 260, 15639-15645 (1985)]. The specific binding of ^3 H-PAF was measured using a Wattman GF/C filter. A test compound was dissolved in dimethyl sulfoxide and diluted 100 fold with a buffer solution containing 0.5% bovine serum albumin. Nine parts by weight of the solution, for a receptor binding experiment, was mixed with one part of the test compound solution prepared above. The percent inhibition of the specific binding was plotted for a log concentration of the test compound, and the 50% inhibitory concentration (IC50) was calculated from the linear line connecting all the plotted points.

Assay [1] deals with blood platelet (PAF-induced aggregation). Nature of the assay: Inhibitory effect in vitro against PAF-induced blood platelet aggregation. In kind it is cell-based. The following applies: Oryctolagus cuniculus, 5 min; rabbit platelet rich plasma; l-C16:0 PAF final 10^-8 ~3×10^-8 M; 5 min observation. The procedure:
Inhibitory effect in vitro against PAF-induced blood platelet aggregation
Blood samples were drawn from a rabbit and one part by volume of each sample was immediately mixed with 1/9 part of a 3.8% w/v aqueous solution of sodium citrate. The samples were centrifuged at 150×G at room temperature for 15 minutes to obtain a platelet rich plasma (PRP) fraction from the upper layer. The remains were further centrifuged at 1,000×G for 15 minutes to obtain a platelet poor plasma (PPP) fraction from the upper layer. The PRP and PPP fractions were mixed appropriately, to obtain a sample in which the final count of blood platelets was adjusted to be 6×10^5 per ul. According to the method reported by Born et al. [G. V. R. Born et al.: J. Physiol. 62, 67-68 (1962)], blood platelet aggregation was determined by an increase in light transmission measured using an aggregometer. 3 ul of a solution of the test compound in dimethyl sulfoxide were added to 272 ul of PRP, and, after 1 minute, 25 ul of a physiological saline solution containing l-c16:0 PAF (at a final concentration of 10^-8 ~3×10^-8 M) were added. […] At the end of this value and the value of PAF-induced aggregation which was observed when dimethyl sulfoxide only was used without the addition of any test compound. IC50 values were calculated from the dose-response curve.

T1 sequence (G1TEI7 1-342): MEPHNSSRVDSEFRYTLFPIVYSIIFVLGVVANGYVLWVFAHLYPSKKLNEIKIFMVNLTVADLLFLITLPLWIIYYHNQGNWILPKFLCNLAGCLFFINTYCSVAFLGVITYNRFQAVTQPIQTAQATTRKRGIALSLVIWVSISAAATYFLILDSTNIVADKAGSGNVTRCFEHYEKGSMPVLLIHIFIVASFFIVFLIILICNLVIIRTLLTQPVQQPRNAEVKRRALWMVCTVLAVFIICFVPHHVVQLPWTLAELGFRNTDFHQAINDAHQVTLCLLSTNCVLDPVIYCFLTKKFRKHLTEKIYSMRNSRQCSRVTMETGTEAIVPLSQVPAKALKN

Take `CCCCCCCCCCCCCCCCCCNC(=O)OCC(COP(=O)([O-])OCC[n+]1ccsc1)OC` (racemic) [CV-3988, reference compound]: the ED50 in the assay with PAF-induced hypotension stood at 420 µg/kg. On PAF-receptor, the IC50 is 1600 nM.
For `COc1cc(C(=O)N2CCN(C(=O)C=C(c3ccccc3)c3ccccc3)CC2)cc(OC)c1OC` [Example 1, 1-(3,3-Diphenylacryloyl)-4-(3,4,5-trimethoxybenzoyl)piperazine], the half-maximal inhibitory concentration (IC50) amounted to 320 nM in assay [1] and 47 nM on PAF-receptor. In the assay on PAF-induced hypotension, the ED50 is 57 µg/kg.
Turning to `COc1cc(C(=O)N2CCN(C(=O)/C=C(/c3ccccc3)c3cccs3)CC2)cc(OC)c1OC` [Example 5, 1-[(Z)-3-Phenyl-3-(2-thienyl)acryloyl]-4-(3,4,5-trimethoxybenzoyl)piperazin], the values for the IC50 (in assay [1]; at PAF-receptor) were 260 nM and 47 nM, respectively. For the same compound, the ED50 in the assay with PAF-induced hypotension stood at 54 µg/kg.
For `COc1ccc(/C(=C/C(=O)N2CCN(C(=O)c3cc(OC)c(OC)c(OC)c3)CC2)c2ccc(Cl)c(Cl)c2)cc1` [Example 31, 1-[(Z)-3-(3,4-Dichlorophenyl)-3-(4-methoxyphenyl)acryloyl]-4-(3,4,5-trimethoxybenzoyl)piperazine] the same measures were 44 nM, 14 nM and 6.7 µg/kg.
As to `COc1cc(C(=O)N2CCN(C(=O)C=C(c3cccc(Cl)c3)c3cccc(Cl)c3)CC2)cc(OC)c1OC` [Example 41, 1-[3,3-Bis(3-chlorophenyl)acryloyl]-4-(3,4,5-trimethoxybenzoyl)piperazine], the IC50 in assay [1] came out at 67 nM; at PAF-receptor it was 170 nM. The ED50 in the assay on PAF-induced hypotension worked out at 7.1 µg/kg.
Consider `COc1ccc(/C(=C/C(=O)N2CCN(C(=O)c3cc(OC)c(OC)c(OC)c3)CC2)c2ccccc2Cl)cc1` [Example 42, 1-[(Z)-3-(2-chlorophenyl)-3-(4-methoxyphenyl)acryloyl]-4-(3,4,5-trimethoxybenzoyl)piperazine], for which the ED50 in the assay on PAF-induced hypotension turned out to be 5 µg/kg. For the same compound, the IC50 at PAF-receptor came to 20 nM.
Regarding `COc1cccc(/C(=C/C(=O)N2CCN(C(=O)c3cc(OC)c(OC)c(OC)c3)CC2)c2cccc(Cl)c2)c1` [Example 43, 1-[(Z)-3-(3-Chlorophenyl)-3-(3-methoxyphenyl)acryloyl]-4-(3,4,5-trimethoxybenzoyl)piperazine], the ED50 in the assay on PAF-induced hypotension was 4.4 µg/kg. Besides, on PAF-receptor, the half-inhibitory concentration (IC50) is 13 nM.
With `COc1cccc(/C(=C\C(=O)N2CCN(C(=O)c3cc(OC)c(OC)c(OC)c3)CC2)c2cccc(Cl)c2)c1` [Example 44, 1-[(E)-3-(3-Chlorophenyl)-3-(3-methoxyphenyl)acryloyl]-4-(3,4,5-trimethoxybenzoyl)piperazine], the ED50 with PAF-induced hypotension turned out to be 7.5 µg/kg. Besides, on PAF-receptor, the concentration for half-maximal inhibition (IC50) turned out to be 15 nM.
Regarding `COc1ccc(/C(=C/C(=O)N2CCN(C(=O)c3cc(OC)c(OC)c(OC)c3)CC2)c2cccc(Cl)c2)cc1` [Example 45, 1-[(Z)-3-(3-Chlorophenyl)-3-(4-methoxyphenyl)acryloyl]-4-(3,4,5-trimethoxybenzoyl)piperazine], the IC50 in assay [1] came out at 39 nM; on PAF-receptor it was 16 nM. Moreover, the ED50 with PAF-induced hypotension amounted to 6.6 µg/kg.
Take `COc1cc(C(=O)N2CCN(C(=O)C=C(c3cccc(C)c3)c3cccc(C)c3)CC2)cc(OC)c1OC` [Example 56, 1-[3,3-Bis(3-Methylphenyl)acryloyl]-4-(3,4,5-trimethoxybenzoyl)piperazine]: the ED50 in the assay with PAF-induced hypotension is 11 µg/kg. In addition, the IC50 on PAF-receptor is 35 nM.
Regarding `COc1cccc(/C(=C/C(=O)N2CCN(C(=O)c3cc(OC)c(OC)c(OC)c3)CC2)c2ccccc2Cl)c1` [Example 72, 1-[(Z)-3-(3-Methoxyphenyl)-3-(2-chlorophenyl)acryloyl]-4-(3,4,5-trimethoxybenzoyl)piperazine], in the assay on PAF-induced hypotension, the ED50 was 9.7 µg/kg. At PAF-receptor, the IC50 is 26 nM.
`COc1ccc(/C(=C/C(=O)N2CCN(C(=O)c3cc(OC)c(OC)c(OC)c3)CC2)c2cccc(Br)c2)cc1` [Example 73, 1-[(Z)-3-(4-Methoxyphenyl)-3-(3-bromophenyl)acryloyl]-4-(3,4,5-trimethoxybenzoyl)piperazine]: the 50% inhibitory concentration (IC50) in assay [1] worked out at 86 nM. Moreover, in the assay with PAF-induced hypotension, the ED50 amounted to 8.4 µg/kg.
On to `COc1ccc(/C(=C/C(=O)N2CCN(C(=O)c3cc(OC)c(OC)c(OC)c3)CC2)c2cccc(F)c2)cc1` [Example 74, 1-[(Z)-3-(4-Methoxyphenyl)-3-(3-fluorophenyl)acryloyl]-4-(3,4,5-trimethoxybenzoyl)piperazine], for which the IC50 in assay [1] is 58 nM. In the assay with PAF-induced hypotension, the ED50 came out at 5.5 µg/kg.
In assay [1], `CCCOc1cccc(/C(=C/C(=O)N2CCN(C(=O)c3cc(OC)c(OC)c(OC)c3)CC2)c2ccccc2)c1` [Example 76, 1-[(E)-3-(3-Propoxyphenyl)-3-phenylacryloyl]-4-(3,4,5-trimethoxybenzoyl)piperazine] displayed an IC50 of 83 nM. Moreover, the ED50 in the assay with PAF-induced hypotension came to 9.2 µg/kg.
`COc1ccc(/C(=C/C(=O)N2CCN(C(=O)c3cc(OC)c(OC)c(OC)c3)CC2)c2ccc(Cl)cc2Cl)cc1` [Example 78, 1-[(Z)-3-(4-Methoxyphenyl)-3-(2,4-dichlorophenyl)acryloyl]-4-(3,4,5-trimethoxybenzoyl)piperazine] came in with an IC50 in assay [1] of 29 nM. For the same compound, the ED50 in the assay on PAF-induced hypotension worked out at 7.3 µg/kg.
For `COc1ccc(/C(=C/C(=O)N2CCN(C(=O)c3cc(OC)c(OC)c(OC)c3)CC2)c2cc(Cl)ccc2Cl)cc1` [Example 80, 1-[(Z)-3-(4-Methoxyphenyl)-3-(2,5-dichlorophenyl)acryloyl]-4-(3,4,5-trimethoxybenzoyl)piperazine] the same measures were 28 nM and 6.5 µg/kg.
As to `COc1ccc(/C(=C/C(=O)N2CCN(C(=O)c3cc(OC)c(OC)c(OC)c3)CC2)c2cccc(Cl)c2Cl)cc1` [Example 81, 1-[(Z)-3-(4-Methoxyphenyl)-3-(2,3-dichlorophenyl)acryloyl]-4-(3,4,5-trimethoxybenzoyl)piperazine], the concentration for half-maximal inhibition (IC50) in assay [1] amounted to 31 nM; on PAF-receptor it was 32 nM.
As for `COc1ccc(/C(=C/C(=O)N2CCN(C(=O)c3cc(OC)c(OC)c(OC)c3)CC2)c2cc(C)cc(C)c2)cc1` [Example 82, 1-[(Z)-3-(4-Methoxyphenyl)-3-(3,5-dimethylphenyl)acryloyl]-4-(3,4,5-trimethoxybenzoyl)piperazine], half-maximal inhibition in assay [1] (IC50) was put at 9.9 nM. Also, the ED50 in the assay on PAF-induced hypotension was found to be 13 µg/kg.
For the compound `CCc1ccc(/C(=C/C(=O)N2CCN(C(=O)c3cc(OC)c(OC)c(OC)c3)CC2)c2cccc(Cl)c2)cc1` [Example 83, 1-[(Z)-3-(4-Ethylphenyl)-3-(3-chlorophenyl)acryloyl]-4-(3,4,5-trimethoxybenzoyl)piperazine], the ED50 with PAF-induced hypotension was 11 µg/kg. Moreover, the IC50 on PAF-receptor came to 14 nM.
Turning to `COc1ccc(/C(=C/C(=O)N2CCN(C(=O)c3cc(OC)c(OC)c(OC)c3)CC2)c2cc(C(F)(F)F)cc(C(F)(F)F)c2)cc1` [Example 84, 1-[(Z)-3-(4-Methoxyphenyl)-3-(3,5-di-trifluoromethylphenyl)acryloyl]-4-(3,4,5-trimethoxybenzoyl)piperazine], the ED50 in the assay on PAF-induced hypotension worked out at 8.6 µg/kg. For the same compound, the half-inhibitory concentration (IC50) on PAF-receptor was 40 nM.
In the case of `CCOc1ccc(/C(=C/C(=O)N2CCN(C(=O)c3cc(OC)c(OC)c(OC)c3)CC2)c2cc(Cl)cc(Cl)c2)cc1` [Example 85, 1-[(Z)-3-(4-Ethoxyphenyl)-3-(3,5-dichlorophenyl)acryloyl]-4-(3,4,5-trimethoxybenzoyl)piperazine], the ED50 in the assay with PAF-induced hypotension was 6.1 µg/kg. Further, the IC50 on PAF-receptor was found to be 20 nM.
